# Key:
# [1] = Dissolution of FeCl3 with ligand in aqueous phase at neutral or basic pH; Fe in filtrate by ICP-OES; type: physicochemical
# Method: (§1) The invention is illustrated without implied limitation by the following examples, in which the amounts of metals in solution were measured by ICP-OES (Inductively Coupled Plasma-Optical Emission Spectroscopy).
# (§2) In the examples which follow, the term “theoretical % by weight of metal in solution” is understood to mean the ratio, expressed as percentage, of the total weight of metal initially introduced into the reaction medium to the weight of the filtrate recovered and analysed.
# (§3) 4.92 g (0.025 mol) of OHMNa are dissolved in 19.17 ml of water. 20.27 g of an aqueous solution comprising 6.76 g of FeCl3 hexahydrate (0.025 mol) are added over 15 min while maintaining the temperature of the reaction medium at approximately 20° C. The pH of the solution is adjusted to 7 by addition of a 50% by weight aqueous sodium hydroxide solution (5.87 g). The mixture is subsequently stirred at ambient temperature for 24 h. After filtering and washing with water, 59.9 g of a solution with a dark brown-red colour are recovered.
# 8.11 g of FeCl3 hexahydrate are dissolved in 12 ml of water. The pH is adjusted to 7 by addition of a 50% by weight aqueous sodium hydroxide solution. After filtering and washing with water, less than 10 ppm of Fe are measured in the filtrate.
# 2.05 g (0.01 mol) of 5-chloro-2-hydroxymandelic acid are suspended in 15 ml of water. 0.8 g of 50% by weight sodium hydroxide solution (0.01 mol) is added in order to obtain a solution. 17.7 g of an aqueous solution comprising 2.7 g of FeCl3 hexahydrate (0.01 mol) are added over 15 min while maintaining the temperature of the reaction medium at approximately 20° C. The pH of the solution is adjusted to 7 by addition of 2.4 g of a 50% by weight aqueous sodium hydroxide solution. The mixture is subsequently stirred at ambient temperature for 24 h. After filtering, 35.1 g of a solution with a dark brown-red colour are recovered.
# The procedure of Example 1 or 2 is repeated but using, according to the invention, the ligands B, C, D and E of formula (I), the structures of which are described in Table 1 below, and varying the ligand/metal molar ratios, if appropriate.
# The procedure of Example 2 is repeated by using the compounds G, H, I and J as ligands, the structures of which are described in Table 4 below, and varying the ligand/metal molar ratios, if necessary.
# The procedure described in Example 1 is repeated but adjusting the pH of the solution to 6, 7, 9, 10 and 12.
# A solution composed of 40 g of water and of 12.97 g of FeCl3 hexahydrate (0.048 mol) is added over 15 min to 43.5 g of an aqueous solution comprising 10.2 g of OHM.2Na (0.048 mol) while maintaining the temperature of the reaction medium at approximately 20° C. The pH of the solution is adjusted to 7 by addition of a 50% by weight aqueous sodium hydroxide solution (5.1 g). The mixture is subsequently stirred at ambient temperature for 5 weeks without specific protection with regard to light. After filtering, 80 g of a solution with a dark brown-red colour are recovered.
# 1.98 g (0.01 mol) of OHMNa are dissolved in 8 ml of water.
# 12.7 g of an aqueous solution comprising 2.7 g of FeCl3 hexahydrate (0.01 mol) are added over 15 min while maintaining the temperature of the reaction medium at approximately 20° C. The pH of the solution is adjusted to 7 by addition of 2.3 g of a 50% by weight aqueous sodium hydroxide solution. A suspension of 1.0 g (0.01 mol) of CaCO3 in 15 g of water is subsequently added. A few drops of 37% HCl are added to adjust the pH to 7. The mixture is subsequently stirred at ambient temperature for 24 hours. After filtering, 35.0 g of a solution with a dark brown-red colour are recovered.
# [2] = Dissolution of Mg(II) cations with OHM.2Na at pH 12; type: physicochemical; details: 0.05 mol OHM.2Na
# Method: (§4) To an aqueous solution (60 g) containing 0.05 mol of OHM.2Na, are added 9.9 g of an aqueous solution containing 0.025 mole of magnesium chloride (MgCl2). The pH is set at 12 with 1 g of an aqueous solution of HCl 1N. […] Without the OHM.2Na, the magnesium precipitate at pH 12 as a white solid (Mg(OH)2).
# as §4, with “added 19.8” for “added 9.9”, “containing 0.05” for “containing 0.025”, “with 2.6” for “with 1”, “of NaOH 30%.” for “of HCl 1N.”
# [3] = Iron content of the dried powder by ICP-OES; type: physicochemical; details: ICP-OES measurement on powder
# Method: as §1
# The dark brown-red solution obtained in Example 1 is concentrated by distillation of water. The residue is dried in an oven at 50° C. for 48 h. A red-brown powder is obtained which comprises 12% by weight of iron by ICP-OES measurement.
# A measurement on a powder formed of [Fe(o,o-EDDHA)Na] chelate available commercially gives only 7.8% by weight of iron.
# [4] = background statement, on average; cited from earlier work
# [5] = commercial chelates, background statement; cited from earlier work
# [6] = Dissolution of Al(III) cations with OHMNa; metal in filtrate by ICP-OES; type: physicochemical
# Method: as §1, §2, §3
# (§5) The procedure of Example 1 is repeated but substituting FeCl3 by AlCl3, CrCl3.6H2O and Cu(OAc)2.H2O respectively.
# [7] = Dissolution of Cr(III) cations with OHMNa; metal in filtrate by ICP-OES; type: physicochemical
# Method: as §1, §2, §3, §5
# [8] = Dissolution of Cu(II) cations with OHMNa; metal in filtrate by ICP-OES; type: physicochemical
# Method: as §1, §2, §3, §5
# [9] = Table 6, comparative ligands, pH 7
# [10] = pH 7, stirred 24 h at ambient temperature, filtrate
# [11] = pH 7, total Fe introduced / weight of filtrate
# [12] = Table 6, pH 7, ligand/iron molar ratio of 2/1
structure (smiles),measurement,setting,value
"O.O.O.O.O.O.[Cl-].[Cl-].[Cl-].[Fe+3] [compound 1, FeCl3 hexahydrate, reference compound]",Fe measured in the filtrate,"[1]; FeCl3 hexahydrate without ligand, pH 7",less than 10 ppm
O=C(O)C(O)c1cc(F)ccc1O (stereo not shown) [Example 6],% by weight measured (Fe in solution),"[1]; Table 3, ligands B-E, pH 7",1.4 % by weight
same,Theoretical % by weight of Fe in solution,"[1]; Table 3, ligands B-E, pH 7",1.46 % by weight
"O=C(O)C(O)c1ccccc1 (stereo not shown) [compound 4, reference compound]",% by weight measured (Fe in solution),[1]; [9],0.09 % by weight
same,Theoretical % by weight of Fe in solution,[1]; [9],2.38 % by weight
same,dissolution of iron in aqueous solution at pH 7 (in words),[1]; pH 7,do not make possible or make possible only to a very slight extent the dissolution of iron
"O=C([O-])C(O)c1ccccc1[O-].[Na+].[Na+] (stereo not shown) [OHM.2Na, disodium salt of 2-(2-hydroxyphenyl)-2-hydroxyacetic acid]",Theoretical % by weight of Fe in solution,"[1]; pH 7, 5 weeks stirring",3.35 % by weight
same,% by weight of Fe in solution measured,"[1]; pH 7, stirred 5 weeks at ambient temperature without protection from light",3.2 % by weight
same,state of the solution after 24 hours under stirring,[2]; 0.025 mole MgCl2,"still homogeneous, without any solid"
same,state of the solution after 24 hours under stirring,[2]; 0.05 mole MgCl2,"still homogeneous, without any solid"
O=C([O-])C(O)c1ccc(O)cc1.[Na+] (stereo not shown) [Example 3],% by weight measured (Fe in solution),"[1]; Table 3, ligands B-E, pH 7",1.1 % by weight
same,Theoretical % by weight of Fe in solution,"[1]; Table 3, ligands B-E, pH 7",1.47 % by weight
CCOc1cc(C(O)C(=O)O)ccc1O (stereo not shown) [Example 4],% by weight measured (Fe in solution),"[1]; Table 3, ligands B-E, pH 7",1.5 % by weight
same,Theoretical % by weight of Fe in solution,"[1]; Table 3, ligands B-E, pH 7",1.83 % by weight
O=C(O)C(O)c1ccc(O)c(O)c1 (stereo not shown) [Example 5],% by weight measured (Fe in solution),"[1]; Table 3, ligands B-E, pH 7",1.2 % by weight
same,Theoretical % by weight of Fe in solution,"[1]; Table 3, ligands B-E, pH 7",1.49 % by weight
"O=C(O)C(=O)c1ccccc1O [compound 3, reference compound]",% by weight measured (Fe in solution),[1]; [9],0.5 % by weight
same,Theoretical % by weight of Fe in solution,[1]; [9],4.09 % by weight
same,dissolution of iron in aqueous solution at pH 7 (in words),[1]; pH 7,do not make possible or make possible only to a very slight extent the dissolution of iron
"O=C(O)C(O)c1ccccc1Cl (stereo not shown) [compound 5, reference compound]",% by weight measured (Fe in solution),[1]; [9],0.01 % by weight
same,Theoretical % by weight of Fe in solution,[1]; [9],4.73 % by weight
same,dissolution of iron in aqueous solution at pH 7 (in words),[1]; pH 7,do not make possible or make possible only to a very slight extent the dissolution of iron
O=C(O)C(O)c1cc(Cl)ccc1O (stereo not shown) [5-chloro-2-hydroxymandelic acid],% by weight of Fe in solution measured,[1]; [10],1.3 % by weight
same,Theoretical % by weight of Fe in solution,[1]; [11],1.59 % by weight
"O=C(O)C(NCCNC(C(=O)O)c1ccccc1O)c1ccccc1[O-].[Fe].[Na+] (stereo not shown) [[Fe(o,o-EDDHA)Na]]",% by weight of iron in the powder,[3],7.8 % by weight
same,level of iron of commercial chelates,[4],~6 % by weight
same,solubility in water,[5],150-300 g/l of water
"O=C(O)Cc1ccccc1O [compound 2, reference compound]",% by weight measured (Fe in solution),[1]; [9],<0.0025 % by weight
same,Theoretical % by weight of Fe in solution,[1]; [9],2.88 % by weight
same,% by weight measured (Fe in solution),[1]; [12],0.01 % by weight
same,Theoretical % by weight of Fe in solution,[1]; [12],1.67 % by weight
same,dissolution of iron in aqueous solution at pH 7 (in words),[1]; pH 7,do not make possible or make possible only to a very slight extent the dissolution of iron
"O=C([O-])C(O)c1ccccc1O.[Na+] (stereo not shown) [OHMNa, sodium salt of 2-(2-hydroxyphenyl)-2-hydroxyacetic acid]",% by weight measured (Fe in solution),"[1]; OHMNa, pH 6",1.7 % by weight
same,Theoretical % by weight of Fe in solution,"[1]; OHMNa, pH 6",2.18 % by weight
same,% by weight measured (Fe in solution),"[1]; OHMNa, pH 7",2.3 % by weight
same,Theoretical % by weight of Fe in solution,"[1]; OHMNa, pH 7",2.33 % by weight
same,% by weight measured (Fe in solution),"[1]; OHMNa, pH 9",1.9 % by weight
same,Theoretical % by weight of Fe in solution,"[1]; OHMNa, pH 9",1.96 % by weight
same,% by weight measured (Fe in solution),"[1]; OHMNa, pH 10",2.7 % by weight
same,Theoretical % by weight of Fe in solution,"[1]; OHMNa, pH 10",2.80 % by weight
same,% by weight measured (Fe in solution),"[1]; OHMNa, pH 12",1.9 % by weight
same,Theoretical % by weight of Fe in solution,"[1]; OHMNa, pH 12",1.92 % by weight
same,Theoretical % by weight of Fe in solution,"[1]; pH 7, in the presence of CaCO3",1.59 % by weight
same,% by weight of Fe in solution measured,"[1]; pH 7, in the presence of CaCO3 (0.01 mol), 24 hours",1.4 % by weight
same,% by weight of Fe in solution measured,[1]; [10],2.3 % by weight
same,Theoretical % by weight of Fe in solution,[1]; [11],2.33 % by weight
same,Theoretical % by weight of metal in solution,[6]; pH 7,1 % by weight
same,% by weight measured (metal in solution),"[6]; pH 7, 24 h",1 % by weight
same,Theoretical % by weight of metal in solution,[7]; pH 7,1.83 % by weight
same,% by weight measured (metal in solution),"[7]; pH 7, 24 h",1.40 % by weight
same,Theoretical % by weight of metal in solution,[8]; pH 7,1.43 % by weight
same,% by weight measured (metal in solution),"[8]; pH 7, 24 h",1.40 % by weight

# Source: patent publication US8372176B2, “Metal complexes comprising a ligand derived from 2-aryl-2-hydroxyacetic acid and a divalent or trivalent metal cation, and their use” (Clariant Specialty Fine Chemicals (France), priority 2006, dated 2013)
